What was measured:
[1] = test system: hiPS-BMEC (human iPS-derived BMEC-like cells) monolayer; test: Transwell permeability across hiPS-BMEC monolayer; type: in vitro ADME; conditions: cys-T7 versus cys-Tfr-T12 peptide
[2] = biological target: transferrin receptor (TfR); conditions: read-out: Dissociation constant Kd to TfR; cited from earlier work
hiPS-BMEC = test: Confocal imaging of uptake and colocalization in hiPS-BMEC; type: cell-based, human; conditions: 125 nM AF 488-Tf, 1250 nM unlabeled Tf, 1 h, 37 °C
HBEC = test: Confocal imaging of uptake in HBEC; type: cell-based, human; conditions: 125 nM AF 488-Tf, 1250 nM unlabeled Tf, 1 h, 37 °C

Substance	Kd [2] [nM]	also measured
CHAIYPRH [cys-T7 peptide]	–	Permeability compared between the two peptides [1]: higher permeability
HAIYPRH [T7 peptide]	10	–
AF 488-Tf: Alexa Fluor 488 labeled transferrin	–	Internalization on co-incubation with 10-fold excess of unlabeled Tf (hiPS-BMEC): reduced internalization; Internalization on co-incubation with 10-fold excess of unlabeled Tf (HBEC): reduced internalization
THRPPMWSPVWP [Tfr-T12 peptide]	15	–
Tf: unlabeled transferrin, the native ligand of TfR	2.8	–

Reference: PMC8927846 (Materials Today Bio, 2022)
